Legend:
[1] = test system: replication fork extension; assay: DNA fiber assay; type: cell-based; details: CldU / IdU labeling before and after treatment
Procedure: FIGS. 3A-3B. […] Synchronized cells were sequentially incubated in the presence of CldU and IdU before and after AOH1160 treatment, respectively. Cells sequentially incubated with the same two nucleotide analogues but without AOH1160 were used as control. Images of FIG. 3A depict representative images of the labeled DNA strands from cells treated with or without AOH1160. FIG. 3B depicts the lengths of CldU (light gray) and IdU (dark gray) incorporated DNA segments measured from more than 30 independent DNA strands in cells treated with or without AOH1160 were averaged and graphed with standard deviations.

[2] = test system: brain tumors; assay: Brain tumors in mice, luciferase imaging; type: in vivo; details: given once weekly to tumor bearing mice
Procedure: (§1) FIG. 12. Effects of AOH1160 on brain tumors in mice. The compound was given to tumor bearing mice once weekly. The brain cancer cells used in this study contains a luciferase. For measuring tumor growth, luciferin was injected into each mouse. The relative growth of the tumors in live mice was determined by measuring luminescent signals by a CCD camera.
as §1, with “The” for “FIG. 12. Effects of AOH1160 on brain tumors in mice. The”, “compound (AOH1160)” for “compound”, “give into” for “given to”

[3] = test system: SK-N-BE(2)c derived xenograft tumors; details: 30 mg/kg twice daily (BID) by oral gavages, vs vehicle
[4] = test system: 7SM0032; assay: TUNEL assay (apoptosis); type: cell-based, human; details: 7SM0032 cells, 500 nM, 24 h
Procedure: To measure the effect of the compounds on cell growth, cells were seeded at 3×10^4/ml into a 96-well plate. Once attached, cells were treated with various concentrations of AOH1160 for 72 h. Cell growth was measured by the CellTitor-Glo assay (Promega, Madison, WI) according to the manufacturer's instructions. To measure apoptosis, cells were seeded at 1×10^5/ml onto a chamber slide. Once attached, cells were treated with the 500 nM AOH1160 for 24 h. Cells were fixed and analyzed by a TUNEL assay using the TMR red in situ cell death detection kit (Roche Diagnostics, Indianapolis, IN).

[5] = test system: γH2A.X, caspase-3 and caspase-9 in SK-N-DZ cells; assay: Western blot; type: cell-based, human; details: NB cells (SK-N-DZ), 500 nM
Procedure: (§2) Cells were dissolved into the Laemmli sample buffer on the plate. The whole cell extracts were sonicated, and the proteins in the lysate were resolved using a 4-12% SDS polyacrylamide gel, and the resolved proteins were blotted onto a nitrocellulose membrane. Antibodies specific to H2A.X, cleaved caspase-3, full-length caspase-3, or cleaved caspase-9 were purchased from Cell Signaling Technology (Danvers, MA). The anti-γH2A.X antibody was purchased from Millipore. The membrane was blocked with 5% nonfat dry milk and incubated individually with each of these antibodies dissolved in the blocking buffer. After incubation with peroxidase-conjugated secondary antibodies, the protein of interest was detected using an ECL kit purchased from Thermo Fisher Scientific (Waltham, MA).

[6] = test system: γH2A.X in 7SM0032 cells; assay: Western blot; type: cell-based, human; details: 500 nM
Procedure: as §2

[7] = test system: NCI-H23; assay: AOH1160 IC50 in additional cancer cell lines (Table 4); type: cell-based; details: Homo sapiens; NCI-H23, Non-Small Cell Lung
Text: (§3) In addition numerous analogs related to AOH1160 were screened in numerous neuroblastoma cell lines for anti-cancer activity (Table 2). AOH1160 was screened for anti-cancer activity in additional cancer cell lines besides neuroblastoma (Table 3).

[8] = test system: OVCAR-8; assay: as above; type: cell-based; details: Homo sapiens; OVCAR-8, Ovarian
Text: as §3

[9] = test system: A549; assay: as above; type: cell-based; details: Homo sapiens; A549, Non-Small Cell Lung
Text: as §3

[10] = test system: DU-145; assay: as above; type: cell-based; details: Homo sapiens; DU-145, Prostate
Text: as §3

[11] = test system: HL-60; assay: as above; type: cell-based; details: Homo sapiens; HL-60, Leukemia
Text: as §3

[12] = test system: HCT-15; assay: as above; type: cell-based; details: Homo sapiens; HCT-15, Colon
Text: as §3

[13] = test system: HCT-116; assay: as above; type: cell-based; details: Homo sapiens; HCT-116, Colon
Text: as §3

[14] = test system: NCI-H322M; assay: as above; type: cell-based; details: Homo sapiens, Non-Small Cell Lung
Text: as §3

SMILES: O=C(CNC(=O)c1cccc2ccccc12)Nc1ccccc1Oc1ccccc1 [AOH1160]
- replication fork extension [1]: inhibition of replication fork extension
- brain tumor growth (luminescent signals) [2]: inhibited brain tumor growth
- tumor burden [3]: significantly reduced tumor burden
- apoptosis [4]: Nor does it increase intracellular γH2A.X level (FIG. 2B) or cause apoptosis
- caspase activation [5]: activation of caspase-3 and caspase-9
- γH2A.X levels [5]: increases γH2A.X levels
- intracellular γH2A.X level [6]: Nor does it increase intracellular γH2A.X level
- IC50 [7]: 194 nM
- IC50 [8]: 204 nM
- IC50 [9]: 173 nM
- IC50 [10]: 200 nM
- IC50 [11]: 128 nM
- IC50 [12]: 133 nM
- IC50 [13]: 102 nM
- IC50 [14]: 157 nM

— patent US12054447B2, “PCNA inhibitors” (City of Hope, priority 2015, dated 2024)
